Values of other authors, collected in patent publication US6441051B1, “Insect eradicator and method” (priority 2001, dated 2002).

Tested on: fire ants
Conditions: d-limonene at about 5% concentration, after twenty-four hours

In the case of `C=C(C)[C@H]1CC=C(C)CC1` [d-limonene], the kill rate is listed as “approximately 70%”.
